{"source": "patent US20050090669A1", "about": "“Aminoalcohol derivatives as beta-3 adrenergic receptor agonists” (priority 2002, published 2005)", "tested_on": "Increase in Intravesical Pressure Induced by Carbachol in Anesthetized Dog", "test": "Effect on the increase in intravesical pressure induced by carbachol in anesthetized dog", "format": "in vivo", "conditions": "0.032 mg/kg intravenously, 30 minutes before carbachol (1.8 μg/kg); female Beagle dogs under halothane anesthesia", "method": "Effect on the Increase in Intravesical Pressure Induced by Carbachol in Anesthetized Dog\nFemale Beagle dogs weighing 8.0-15.0 kg were fasted for 24 hours and maintained under halothane anesthesia. A 12 F Foley catheter was lubricated with water soluble jelly, inserted into the urethral orifice and advanced approximately 10 cm until the balloon tip was placed well inside the bladder. The balloon was then inflated with 5 ml of room air and catheter slowly withdrawn just part the first resistance that is felt at the bladder neck. Urine was completely drained out through the catheter, and 30 ml of biological saline was infused. The catheter was connected to pressure transducer, and intravesical pressure (IVP) was continuously recordered. The test compound was administered intravenously at 30 minutes before the administration of carbachol (1.8 μg/kg). Percent inhibition of IVP increase by test compound was calculated by dividing IVPa (IVP increase induced by carbachol after test compound administaration) by IVPb (IVP increase induced by carbachol just before test compound administration).", "data": [{"smiles": "COc1ccc(Oc2ccc3c(c2)C[C@@H](NC[C@H](O)c2ccc(Cl)cc2)CC3)cc1C(=O)O.Cl", "note": "[Test Compound (1), 5-[[(7S)-7-[[(2R)-2-(4-Chlorophenyl)-2-hydroxyethyl]-amino]-5,6,7,8-tetrahydro-2-naphthalenyl]oxy]-2-methoxybenzoic Acid Hydrochloride]", "values": [{"measurement": "Percent inhibition of IVP increase", "result": 54, "unit": "%"}]}]}
